System: DA and 5-HT release in dorsal striatum
Assay: In vivo microdialysis of DA and 5-HT release in dorsal striatum, wild-type mice
Details: 0.1 mg/kg i.p.
Text: Wild-type and 5-HT1B knock out mice were implanted with microdialysis probes according to the methods of DeGroote et al., incorporated herein by reference, with the following modifications. (DeGroote et al., Eur. J. Pharmacol., 439:93-100, 2002). The dialysis probe was placed in the dorsal striatum, at coordinates AP +0.80, ML −1.7 mm from bregma, DV −4.0 mm from the dura, according to the stereotaxic atlas of the mouse brain (Franklin and Paxinos, 1997), and with the toothbar set at 0 mm. Microdialysis experiments were begun 16-20 hours after surgery, using previously described methods, which are incorporated herein by reference (DeGroote et al., 2002). After the start of the dialysis probe perfusion, mice were left undisturbed for three hours. Mice were tested in their home cage during the light period. Samples were collected every 20 minutes in vials containing 7.5 μl acetic acid and stored at −80° C. until HPLC analysis.
Release of DA and 5-HT was measured after peripheral administration of eltoprazine or intrastriatal administration of the selective 5-HT1B receptor agonist CP 93129 dihydrochloride (1,4-Dihydro-3-(1,2,3,6-tetrahydro-4-pyridinyl)-5H-pyrrolo[3,2-b]pyridin-5-one, obtained from Tocris, UK.) Drugs were dissolved in distilled water and further diluted in Ringer solution to the final concentration on the day of the experiment. 5-HT and DA were analyzed by HPLC with electrochemical detection. Samples (25 μl) were injected onto an Inertsil ODS-3 column (3 μM, 2.1×100 mm, Aurora Borealis, The Netherlands) using a Gilson pump and autosampler (Separations, The Netherlands). Separation was performed at 40° C. with the electrochemical detector (Intro, ANTEC Leyden, The Netherlands) set at a potential of 600 mV against an Ag/AgCl reference electrode. The signal was analyzed using Gynkotek software. The mobile phase consisted of 5 g/l (NH4)2SO4, 150 mg/l heptane sulphonic acid sodium salt, 0.5 g/l EDTA, 5% methanol, 30 μl/l triethylamine, 30 μl/l acetic acid, pH 4.6. Flow rate was 0.3 ml/min. The detection limit for 5-HT was 0.5 fmol/25 μl sample (signal to noise ratio 2).
Values for the first four consecutive microdialysis samples were averaged to calculate the basal levels of extracellular 5-HT and DA, uncorrected for probe recovery. Student's t-tests were used to compare basal 5-HT and DA values between the two genotypes. Effects of drug treatment were analyzed by a repeated multivariate analysis of variance (ANOVA) with time as ‘within’ and treatment (or dose) and genotype as ‘between’ factors.

With c1cc2c(c(N3CCNCC3)c1)OCCO2 [eltoprazine, 1-(2,3-dihydro-1,4-benzodioxanyl-5-yl) piperazine] the “time after administration to decrease of DA and 5-HT release” value was at most 20 min, the “time striatal release of DA and 5-HT remained below basal levels after administration” value was “at least 100 minutes” and the “basal release of 5-HT” value (awake mice) was “decreased basal release”. For the same compound, the “basal release of DA” value (awake mice) was “decreased basal release”.
